Reference: ChEMBL document CHEMBL1201862, “PubChem BioAssay data set” (2004)
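Step 1: Grow cells in 96-well plates. Step 2: Expose to compound for 48 hours at 5 concentrations. Step 3: Interpolate endpoints linearly; if unreached, use highest concentration. GI50 = concentration required for 50% inhibition of growth.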 The source made the active and inactive calls. Cut-off read from the data, not from the text of the source: active = GI50 up to about 1.1 µM and inactive = higher.

Assays:
Assay in all cases: DTP human tumour cell line panel, 48 h
[1] = test system: MCF7
[2] = test system: MDA-N
[3] = test system: SK-MEL-28
[4] = test system: HT-29
[5] = test system: CAKI-1
[6] = test system: A549
[7] = test system: UACC-257
[8] = test system: HCT-116
[9] = test system: PC-3
[10] = test system: TK-10
[11] = test system: OVCAR-4
[12] = test system: SNB-19
[13] = test system: ACHN
[14] = test system: CCRF-CEM
[15] = test system: Hs-578T
[16] = test system: NCI-H23
[17] = test system: 786-0
[18] = test system: NCI/ADR-RES
[19] = test system: OVCAR-3
[20] = test system: EKVX
[21] = test system: A498
[22] = test system: SK-MEL-2
[23] = test system: HCC 2998
[24] = test system: SF-268
[25] = test system: MDA-MB-435
[26] = test system: UACC-62
[27] = test system: SNB-75
[28] = test system: DU-145
[29] = test system: COLO 205
[30] = test system: Malme-3M
[31] = test system: T47D
[32] = test system: BT-549
[33] = test system: NCI-H460
[34] = test system: M14
[35] = test system: OVCAR-5
[36] = test system: MDA-MB-231
[37] = test system: SF-295
[38] = test system: IGROV-1
[39] = test system: U-251
[40] = test system: SN12C
[41] = test system: SW-620
[42] = test system: SK-OV-3
[43] = test system: RPMI-8226
[44] = test system: NCI-H226
[45] = test system: HCT-15
[46] = test system: OVCAR-8
[47] = test system: UO-31
[48] = test system: RXF 393
[49] = test system: KM12
[50] = test system: HOP-62
[51] = test system: HOP-92
[52] = test system: SK-MEL-5
[53] = test system: SF-539
[54] = test system: NCI-H522
[55] = test system: LOX IMVI

COc1ccc2[nH]c3c(c2c1)CC(=S)N1CCCC(CC3=O)C1 (centres undefined)
GI50 [1]: 34.3 µM (inactive)
GI50 [2]: 45.2 µM (inactive)
GI50 [3]: 86.9 µM (inactive)
GI50 [4]: 45.4 µM (inactive)
GI50 [5]: 91 µM (inactive)
GI50 [6]: 32.4 µM (inactive)
GI50 [7]: 44.9 µM (inactive)
GI50 [8]: 29.4 µM (inactive)
GI50 [9]: 37.2 µM (inactive)
GI50 [10]: > 100 µM (inactive)
GI50 [11]: 58.3 µM (inactive)
GI50 [12]: 35.6 µM (inactive)
GI50 [13]: 38.8 µM (inactive)
GI50 [14]: 50.2 µM (inactive)
GI50 [15]: 44 µM (inactive)
GI50 [16]: 47.8 µM (inactive)
GI50 [17]: 58.2 µM (inactive)
GI50 [18]: 63.5 µM (inactive)
GI50 [19]: 45.8 µM (inactive)
GI50 [20]: 37.8 µM (inactive)
GI50 [21]: 43.1 µM (inactive)
GI50 [22]: 29.3 µM (inactive)
GI50 [23]: 35.6 µM (inactive)
GI50 [24]: 45 µM (inactive)
GI50 [25]: 46.3 µM (inactive)
GI50 [26]: 39 µM (inactive)
GI50 [27]: 52.4 µM (inactive)
GI50 [28]: 62.4 µM (inactive)
GI50 [29]: 31.3 µM (inactive)
GI50 [30]: 43.3 µM (inactive)
GI50 [31]: 48.9 µM (inactive)
GI50 [32]: > 100 µM (inactive)
GI50 [33]: 31.8 µM (inactive)
GI50 [34]: 45.9 µM (inactive)
GI50 [35]: 64.9 µM (inactive)
GI50 [36]: 50.2 µM (inactive)
GI50 [37]: 39.7 µM (inactive)
GI50 [38]: 64.4 µM (inactive)
GI50 [39]: 33.3 µM (inactive)
GI50 [40]: 63 µM (inactive)
GI50 [41]: 52.7 µM (inactive)
GI50 [42]: 90.8 µM (inactive)
GI50 [43]: 64.9 µM (inactive)
GI50 [44]: 91.6 µM (inactive)
GI50 [45]: 57.7 µM
GI50 [46]: 93.3 µM (inactive)
GI50 [47]: 63.8 µM (inactive)
GI50 [48]: 20.7 µM (inactive)
GI50 [49]: 25.4 µM (inactive)
GI50 [50]: 87.3 µM (inactive)
GI50 [51]: > 100 µM (inactive)
GI50 [52]: 37.1 µM (inactive)

CCNc1ccc2c(c1)C(=O)N(OS(C)(=O)=O)C2=O
GI50 [1]: 33.6 µM (inactive)
GI50 [2]: 89.7 µM (inactive)
GI50 [3]: 57.5 µM (inactive)
GI50 [4]: > 100 µM (inactive)
GI50 [5]: 70 µM (inactive)
GI50 [6]: > 100 µM (inactive)
GI50 [7]: > 100 µM (inactive)
GI50 [53]: 22.4 µM (inactive)
GI50 [8]: 36.5 µM (inactive)
GI50 [9]: > 100 µM (inactive)
GI50 [10]: > 100 µM (inactive)
GI50 [11]: 42 µM (inactive)
GI50 [12]: > 100 µM (inactive)
GI50 [54]: 16.4 µM (inactive)
GI50 [13]: 37.7 µM (inactive)
GI50 [14]: 32.1 µM (inactive)
GI50 [15]: > 100 µM (inactive)
GI50 [16]: > 100 µM (inactive)
GI50 [17]: 34.1 µM (inactive)
GI50 [18]: > 100 µM (inactive)
GI50 [19]: 40.7 µM (inactive)
GI50 [20]: 62.7 µM (inactive)
GI50 [21]: > 100 µM (inactive)
GI50 [22]: 65.6 µM (inactive)
GI50 [23]: > 100 µM (inactive)
GI50 [24]: > 100 µM (inactive)
GI50 [25]: > 100 µM (inactive)
GI50 [26]: > 100 µM (inactive)
GI50 [28]: > 100 µM (inactive)
GI50 [29]: 42.7 µM (inactive)
GI50 [30]: 30.3 µM (inactive)
GI50 [31]: > 100 µM (inactive)
GI50 [32]: 71.4 µM (inactive)
GI50 [33]: > 100 µM (inactive)
GI50 [34]: 42.2 µM (inactive)
GI50 [36]: > 100 µM (inactive)
GI50 [37]: > 100 µM (inactive)
GI50 [39]: > 100 µM (inactive)
GI50 [40]: > 100 µM (inactive)
GI50 [41]: 37.6 µM (inactive)
GI50 [42]: > 100 µM (inactive)
GI50 [43]: 31.9 µM (inactive)
GI50 [44]: 29 µM (inactive)
GI50 [45]: 36.1 µM
GI50 [46]: > 100 µM (inactive)
GI50 [47]: 62.5 µM (inactive)
GI50 [48]: 32.4 µM (inactive)
GI50 [49]: > 100 µM (inactive)
GI50 [55]: 38.3 µM (inactive)
GI50 [50]: > 100 µM (inactive)
GI50 [51]: > 100 µM (inactive)
GI50 [52]: 41.2 µM (inactive)
